Measured values from patent US20010034362A1, “Pyrrolidine derivatives for vision and memory disorders” (Guilford Pharmaceuticals Inc., priority 1998, published 2001).
Marks after values point to notes of the source that are not given here.

Experiments:
[1] = system: retinal ganglion cells, optic nerve axons and myelin; assay: Retinal ischemia by raised intraocular pressure, examined 28 days after the episode; type: in vivo, adult rats
Description: Retinal ganglion cells were retrogradely labeled in adult rats by bilateral injection of fluorogold in their lateral geniculate nuclei. Labeled ganglion cells in the normal rat retina appear as white profiles against the dark background (FIG. 1A). Complete retinal ischemia was produced by infusing normal saline solution into the retinal vitreous cavity of each eye until the intraocular pressure exceeded arterial blood pressure. 28 days after the ischemic episode extensive degeneration of retinal ganglion cell was evidenced by massive reduction in the density of fluorogold labeled cells (FIG. 1B).
Optic nerves from vehicle treated cases examined 28 days after a 1 hour retinal ischemic episode are characterized by a decreased density of optic nerve axons and the appearance of numerous degenerating myelin figures (bright white filled circles).

[2] = system: retinal ganglion cell axons; assay: Protection of retinal ganglion cell axons from degeneration following optic nerve transection (Table V); type: in vivo; details: ± SEM
Description: Efficacy of representative compounds from different immunophilin ligand series in protecing retinal gangiou cell axons from degeneration following optic nerve transection is set forth in Table V.

[3] = system: streptozotocin-induced diabetic rat; assay: Streptozotocin-induced diabetic sensory neuropathy, hot plate and tail flick; type: in vivo, Male Wistar rats; details: lesioned animals treated for 6 weeks at 10 mg/kg s.c.
Method: The procedure involved using Male Wistar rats which were given a single injection of streptozotocin (65 mg/kg i.v.). Blood glucose levels were determined weekly for the first three weeks and on the last week of the experiment. Animals were evaluated weekly for signs of sensory neuropathy using the conventional hot plate and tail flick apparatus test procedures.

[4] = Clearance (Table V comments); type: in vitro ADME
retina = assay: Streptozotocin induced diabetes, retinal neovascularization and neuronal loss; type: in vivo
aged mice = assay: Morris watermaze, spatial learning and memory in aged rodents; type: in vivo, C57BL/6N-Nia mice; details: aged impaired mice, 10 mg/kg daily, retention testing after 3 weeks of dosing
Description: The Morris watermaze is widely used for assessing spatial memory formation and retention in experimental animals. The test deoends on the animal's ability to utilize spatial visual information in order to locate a submerged escape platform in a water tank. It is important that the tank itself be as devoid of specific visual features as possible—thus, it is always circular in shape, the sides are kept smooth and in uniform dull colors, and the water is rendered opacue with nontoxic watercolour pigment or powdered milk. This is to ensure that the animal navigates only by the use of more distant visual cues, or by the use of intra-maze cues specifically provided by the experimenter. The animals' path, speed, and swim time are tracked with a ceiling camera for lacer computerized analysis. Over the course of several successive trials, spatial learning can therefore be defined as a drop of distance swum, or time elapsed, from placement in the tank until escape onto the invisible platform. The procedure involved using three-month old (young) and 18-19 month old male C57BL/6N-Nia (aged) mice which habituated to the well known and conventional Morris watermaze during a 4 trials/day, 3-4 day visible platform training phase. […] Swim Distances (cm) were analyzed in a 7×5 ANOVA including Groups and Blocks (1-5) as factors in the analysis, treating Blocks as a repeated measure.

[5] = system: retinal ganglion cells and optic nerve axons; assay: In vivo retinal ganglion cell and optic nerve axon tests after optic nerve transection, 14 or 28 day treatment, sacrifice at 90 days; design: species or system Sprague Dawley rats; details: for RGC Counts: mean density ± SEM of Fluoro-gold labeled RGC in 400 μm × 400 μm gridfields; for ON Axon density: mean ± SEM of RT97 labeled axons in 200 μm × 200 μm region; for increased ON axon density: adjusted for optic nerve diameter; for ON axon Count: calculated by multiplying axonal density by ON area; for Proximal optic nerve myclin basic protein Density: ± SEM, 20X analysis of % areal coverage
Description: Complete transection of the optic nerve 5 mm from the eyeball produces massive degeneration of retinal ganglion cells, representing loss of >87% of the normal ganglion cell population 90 days after the injury (Table 1). Few spared fluorogold pre labeled ganglion cells are present in vehicle treated cases (large-white figures) among a population of small microglia that digest the debris of the degenerating cells and take up the fluorogold label (FIG. 3A).
90 days after transection few ganglion cell axons remain within the optic nerve (FIG. 4B), representing only 5.6% of the normal population. The loss of axons reflects both the death of retinal ganglion cells and the regression or “dying back” of the axons of ˜70% of the small surviving ganglion cell population into the retina itself (Table 1).
Myelin basic protein immunchistochemistry labels fascicles (darker labeled ‘islands’) of myelinated axons in the normal optic nerve (FIG. 6A, upper left). 90 days after transection extensive degeneration of myelin is evident in vehicle treated cases, characterized by the loss of fascicular organization and the appearance of numerous large dense degenerating myelin figures (FIG. 6B, upper right).
Complete transection of the optic nerve leads to degeneration of the distal segments (axon fragments disconnected from the ganglion cell bodies), and the degeneration of their myelin sheaths.
All eyes and optic nerves stumps were removed.

retinal ganglion cells = assay: Example 17: optic nerve transection, GPI-1046 for 28 days, sacrifice at 90 days; type: in vivo, Sprague Dawley rats; details: 10 mg/kg/day s.c. for 28 days
Description: Transection of the mammalian optic nerve results in a brief period of abortive regeneration, but the majority of axotomized neurons die and the axons from many persisting ganglion cells die back beyond the optic nerve head.

[6] = 28 day treatment beginning 8 weeks after onset of streptozotocin induced diabetes
[7] = 14 days GPI 1046, 90 days after transection
[8] = 28 days GPI 1046, 90 days after transection

**Q.** Which “protection of retinal ganglion cells (fluorogold labeled cell density)” value ([1]; 10 mg/kg s.c. 1 hour prior to ischemia and 10 mg/kg/day for next four days, 28 days after ischemia) does the source give for CCC(C)(C)C(=O)C(=O)N1CCC[C@H]1C(=O)OCCCc1cccnc1 [GPI 1046, 3-(3-pyridyl) -1-propyl (2s) -1-(3,3-dimethyl-1,2-dioxopentyl) -2-pyrrolidinecarboxylate] here?
**A.** noticeable protection of a large proportion of the vulnerable ganglion cell population

**Q.** And the “density of degenerating myelin figures” value ([1]; 28 days after 1 hour retinal ischemic episode)?
**A.** dramatically decreased

**Q.** What about the “protection of optic nerve axons from ischemic degeneration” value ([1]; 28 days after 1 hour retinal ischemic episode, toluidine blue staining) of the same molecule?
**A.** protected the majority of optic nerve axons from degeneration

**Q.** What about the “RT97 + RGC axon density 14 days after ON transection (% ON axons rescued)” value [2] of the same molecule?
**A.** 60.5% ± 3.9 SEM

**Q.** And the “hot plate and tail flick latency” value [3]?
**A.** improvement in latency

**Q.** And the Clearance [4]?
**A.** 63.8 µL/min

**Q.** And the “loss of neurons in the INL and GCL” value (retina; 28 day treatment beginning 8 weeks after onset of diabetes, compared to streptozotocin/vehicle controls)?
**A.** appeared to decrease the loss of neurons in both the INL and GCL

**Q.** What about the “neovascularization in the PR, ONL, OPL and INL” value (retina; [6]) of the same molecule?
**A.** reduced neovascularization

**Q.** What about the “neuronal loss in the ONL” value (retina; [6]) of the same molecule?
**A.** did not appear to protect against neuronal loss in the ONL

**Q.** And the “spatial memory performance (swim distance, retention testing)” value (aged mice)?
**A.** significantly enhanced spatial memory performance

**Q.** What about the “RGC Counts” value ([5]; 14 days GPI 1046 10 mg/kg/day sc, 90 days after transection) of the same molecule?
**A.** small but not significant increase

**Q.** And the “% RGCs Rescued” value [5, 7]?
**A.** 5.3%

**Q.** What about the “% surviving RGCs with ON axons” value [5, 7] of the same molecule?
**A.** 33.6%

**Q.** And the “ON head area (% sham)” value [5, 7]?
**A.** 76%

**Q.** What about the “Spared RGC population” value [5, 7] of the same molecule?
**A.** 20,275

**Q.** And the “ON Axon density” value [5, 7]?
**A.** 569 ± 23

**Q.** What about the “increased ON axon density” value ([5]; 14 days GPI 1046) of the same molecule?
**A.** 1.5X

**Q.** And the “ON axon Count” value ([5]; 14 days GPI 1046)?
**A.** 6820

**Q.** What about the “Distal optic nerve stump shrinkage” value ([5]; 14 days GPI 1046, cross sectional area compared to sham control) of the same molecule?
**A.** did not protect against shrinkage of the distal stump

**Q.** And the “Distal optic nerve myclin base protein Density, loss” value ([5]; 14 days GPI 1046, cross sectional area multiplied by myelin density)?
**A.** slightly increase the density of myelin

**Q.** And the “Proximal optic nerve myclin basic protein Density” value ([5]; 14 days GPI 1046)?
**A.** 1.6 ± 3.0 SEM % recovery

**Q.** What about the “RGC Counts” value ([5]; 28 days GPI 1046 10 mg/kg/day sc, 90 days after transection) of the same molecule?
**A.** 67.9 ± 5.8

**Q.** What about the “% surviving RGCs with ON axons” value [5, 8] of the same molecule?
**A.** 81.4%

**Q.** And the “ON head area (% sham)” value [5, 8]?
**A.** 95%*

**Q.** What about the “Spared RGC population” value [5, 8] of the same molecule?
**A.** 28,096*

**Q.** What about the “ON Axon density” value [5, 8] of the same molecule?
**A.** significant increase in the density of large, and particularly medium and small caliber optic nerve axons

**Q.** And the “increased ON axon density” value ([5]; 28 days GPI 1046)?
**A.** 5.0X

**Q.** What about the “ON axon Count” value ([5]; 28 days GPI 1046) of the same molecule?
**A.** 22,861*

**Q.** And the “Distal optic nerve stump, less shrinkage” value ([5]; 28 days GPI 1046, cross sectional area compared to sham control)?
**A.** prevented cross sectional shrinkage

**Q.** And the “Proximal optic nerve myclin basic protein Density” value ([5]; 28 days GPI 1046)?
**A.** 70 ± 6.3 SEM % recovery

**Q.** And the “protection of optic nerve axons” value ([5]; first 14 days GPI 1046, proximal stump, 90 days after transection)?
**A.** 5.3%

**Q.** And the “ganglion cell population spared (perikaryal neuroprotection)” value (retinal ganglion cells; 90 days after transection)?
**A.** 25%

**Q.** What about the “preservation of axons in the proximal stump of the transected nerve” value (retinal ganglion cells; RT97 neurofilament immunohistochemistry) of the same molecule?
**A.** preserved the axons of virtually ali croteczed neurons
